Assay results taken from patent US20250345190A1, “DRUG ELUTING STENT” (SINO MEDICAL SCIENCES TECHNOLOGY INC., priority 2020, published 2025).
Like-named read-outs stand apart in the source and are kept apart here.

Key:
[1] = Porcine-PK study of BuMA Supreme stent (blood, myocardium, coronary artery tissue); assay type: in vivo, Yucatan Miniature Swine
Method: Release of drug from the stent and local, regional, and systemic delivery of sirolimus/rapamycin was quantified by measuring the drug content in stented coronary artery segments. Drug remaining on the stent and found in tissue was measured at 1, 3, 7, 14, 21, 28, […], 90, and 150 day time points. Stents were implanted into Yucatan Miniature Swine pigs. The porcine and human arteries have correlatively similar anatomy and the porcine model is recommended for use in preclinical studies by the FDA, EMEA and Schwartz et al. Thirty-one Yucatan mini-swine were implanted in two of three coronary arteries: the left circumflex artery [LCx], left anterior descending artery [LAD] and right coronary artery [RCA] of each animal, when possible.
Pharmacokinetic analysis was performed for both Rabbit-PK (2014-002) and Porcine-PK (1792-318G) studies, using whole blood, target tissue, and non-target tissue concentration versus time data, using Phoenix WinNonlin (version 8.1) non-compartment analysis function (linear trapezoidal rule for AUC calculations). Nominal dose values and sampling times were used for calculations. Any concentration reported as BLQ (LLOQ<0.100 ng/mL) was set equal to zero. Time points were manually evaluated for the determination of lambda z (R2>0.75), the elimination rate constant, upon which half-life (t1/2) was based.
For the rabbit and porcine study, pharmacokinetic analyses included Cmax, Tmax, Tlast, AUC0-24, AUClast, t1/2, and MRTlast and is presented in Table 2. Below.

[2] = as above; assay type: in vivo, Yucatan Miniature Swine; settings: for concentration at 60 days: Yucatan miniature swine, pig, coronary artery, stented segment, other: drug-eluting stent implanted in coronary arteries

- concentration at 1 days ([1]; Yucatan miniature swine, pig, coronary artery, stented segment, other: drug-eluting stent implanted in coronary arteries, study day 1, BuMA Supreme stent, porcine, read-out: Arterial drug concentration): 1630 ± 239 ng/g
- concentration at 3 days ([1]; Yucatan miniature swine, pig, coronary artery, stented segment, other: drug-eluting stent implanted in coronary arteries, study day 3, read-out: Arterial drug concentration): 2270 ± 735 ng/g
- concentration at 7 days ([1]; Yucatan miniature swine, pig, coronary artery, stented segment, other: drug-eluting stent implanted in coronary arteries, study day 7, read-out: Arterial drug concentration): 2580 ± 1430 ng/g
- concentration at 14 days ([1]; Yucatan miniature swine, pig, coronary artery, stented segment, other: drug-eluting stent implanted in coronary arteries, study day 14, read-out: Arterial drug concentration): 3700 ± 1710 ng/g
- concentration at 21 days ([1]; Yucatan miniature swine, pig, coronary artery, stented segment, other: drug-eluting stent implanted in coronary arteries, study day 21, read-out: Arterial drug concentration): 9850 ± 4720 ng/g
- concentration at 28 days ([1]; Yucatan miniature swine, pig, coronary artery, stented segment, other: drug-eluting stent implanted in coronary arteries, study day 28, read-out: Arterial drug concentration): 6780 ± 4140 ng/g
- concentration at 90 days ([1]; Yucatan miniature swine, pig, coronary artery, stented segment, other: drug-eluting stent implanted in coronary arteries, study day 90, read-out: Arterial drug concentration): 451 ± 188 ng/g
- concentration at 150 days ([1]; Yucatan miniature swine, pig, coronary artery, stented segment, other: drug-eluting stent implanted in coronary arteries, study day 150, read-out: Arterial drug concentration): 109 ± 12.1 ng/g
- time at which maximum concentration of the drug in the artery occurred ([1]; after implantation, stented area): 21 days
- maximum concentration of the drug in the artery (stented area) ([1]; average, 21 days after implantation, porcine coronary artery, BuMA Supreme stent): 9.85±4.72 μg/gm
- drug concentration in artery segments proximal and distal to the stented segment, relative to the stented segment value ([1]; in vivo): 3-11%
- concentration at 60 days ([2]; by 60 days, read-out: concentration of the drug in the artery (stented area)): 920 ± 200 ng/g
- concentration at 60 days ([2]; study day 60, read-out: Arterial drug concentration): 922 ± 203 ng/g
- samples with measurable drug levels in the artery ([2]; at 154 and 202 days): five of the twelve
Structure (SMILES): CO[C@H]1C[C@@H]2CC[C@@H](C)[C@@](O)(O2)C(=O)C(=O)N2CCCC[C@H]2C(=O)O[C@H]([C@H](C)C[C@@H]2CC[C@@H](O)[C@H](OC)C2)CC(=O)[C@H](C)/C=C(\C)[C@@H](O)[C@@H](OC)C(=O)[C@H](C)C[C@H](C)/C=C/C=C/C=C/1C [Rapamycin, Sirolimus (rapamycin)]
